Literature values, collected in US8343966B2, “Organic compounds” (Novartis AG, priority 2008, dated 2013).

Key:
[1] = system: dimethylnitrosamine induced liver fibrosis; conditions: cited from earlier work
bleomycin-treated rats = conditions: cited from earlier work
[2] = given therapeutically to rat, 3 weeks treatment

Molecule | side effects ([1]; during the 3 weeks treatment) | inhibition of extracellular matrix deposition [1, 2] [%] | prevented death rate [1, 2] [%] | lung fibrosis (bleomycin-treated rats) | number of macrophages and neutrophils in bronchoalveolar lavage (bleomycin-treated rats)
c1ccc(-c2cc(-c3cn[nH]c3-c3ccccn3)ccn2)cc1 [GW6604] | no obvious side effects | 60 | 40 | – | –
Follistatin: an antagonist of activin signalling (protein, UniProt P19883 30-344, looked up) Follistatin: GNCWLRQAKNGRCQVLYKTELSKEECCSTGRLSTSWTEEDVNDNTLFKWMIFNGGAPNCIPCKETCENVDCGPGKKCRMNKKNKPRCVCAPDCSNITWKGPVCGLDGKTYRNECALLKARCKEQPELEVQYQGRCKKTCRDVFCPGSSTCVVDQTNNAYCVTCNRICPEPASSEQYLCGNDGVTYSSACHLRKATCLLGRSIGLAYEGKCIKAKSCEDIQCTGGKKCLWDFKVGRGRCSLCDELCPDSKSDEPVCASDNATYASECAMKEAACSSGVLLEVKHSGSCNSISEDTEEEEEDEDQDYSFPISSILEW | – | – | – | attenuated | significantly reduced
